Reference: patent publication US9340559B2, “Proteasome inhibitor delanzomib for use in the treatment of lupus” (Cephalon, Inc., priority 2011, dated 2016)
Read-outs that look alike come from different tables or passages of the source.

Key:
Format in all cases: in vivo, mouse
NZM mice [1] = test system: NZM mice
MRL/lpr mice = test: Luminex analysis of serum cytokines (IL-12p40/p70, IL-1β, TNFα), MRL/lpr mice
Description: For the processing of serum samples for cytokine analysis, frozen plasma at −80° C. is thawed on ice, vortexed, and centrifuged for 10 minutes to remove debris and aggregates. A total of 25-50 μL of serum is used for Luminex® assays following the manufacturer's instructions. Ten different mouse cytokines are measured using the mouse cytokine 10-plex bead kit (Invitrogen, Carlsbad, Calif., no. LMC0001). Briefly, filter plates (Millipore, Billerica, Mass., no. MAIPSWU10), are pre-wet with 200 μL of wash solution (kit component) and 25 μL of beads are added per well. Serum samples are diluted and a total volume of 50 μL is added per well (ie, 25 μL of sample serum plus 25 μL of assay diluent as provided by the manufacturer). Plates with beads are incubated for 2 hours at room temperature (RT) on an orbital shaker in the dark. At the end of the incubation, plate(s) are washed twice in kit buffer, secondary biotinylated antibody is added at a 1:10 dilution (100 μL) in biotin diluent provided with the kit. Plates are incubated at RT for 1 hour in the dark then washed twice in kit buffer. Strepavidin in assay diluent is added at 100 μL per well, then incubated for 30 minutes at RT in the dark. The plates are washed 3 times then 100 μL of kit wash solution is added and agitated for 2-3 minutes at RT in the dark. Plates are run immediately following this incubation period on a Luminex xMAP 200 unit with data acquisition and analysis software (Invitrogen, San Diego, Calif., no. MAP0200). All bead washing is performed using a vacuum manifold unit (Pall, Ann Arbor, Mich. no. 5017). For all cytokine Luminex assays, values below the limit of detection set by the lowest point along the standard or set by the manufacturer are considered out of range and are not estimated, but assumed the lowest point along the standard curve for that particular assay.
Mice are tracked on an individual basis.
Vehicle alone is provided orally twice weekly (p.o.). Both proteasome inhibitors are suspended in the vehicle solution. […] In addition, urine proteinuria is determined for all animals.
Vehicle was 3% DMSO/10% Solutol/87% PBS.

NZM mice [2] = test: Antibody secreting B-cell Elispot (anti-chromatin, total IgG ASC), spleens of NZM mice (Example 2)
Description: FIG. 34 depicts the frequency of anti-chromatin antibody secreting cells in the spleens of NZM mice. NZM treated mice spleens were processed for splenocytes for ex vivo Elispot assays. Elispot wells were coated with 10 μg/mL of boiled chicken chromatin or ovalbumin protein. Fresh, whole splenocytes were added to each well at 50,000 cells per well in cell culture medium. Cells were incubated overnight at 37° C. Developed wells provided spots that were counted as frequency of ASCs per million splenocytes.
FIG. 35 depicts the frequency of total IgG antibody secreting cells in the spleens of NZM mice. NZM treated mice spleens were processed for splenocytes for ex vivo Elispot assays. Elispot wells were coated with 10 μg/mL of anti-mouse IgG, IgH, and IgL chains. Fresh, whole splenocytes were added to each well at 50,000 cells per well in cell culture medium. Cells were incubated overnight at 37° C. Developed wells provided spots that were counted as frequency of ASCs per million splenocytes.
B-cell Elispot components are ordered from MabTech (Nacka Strand, Sweden) and nitrocellulose IP filter plates are ordered from Millipore (Billerica, Mass.). Elispot wells are coated with either purified bovine thymus dsDNA (Sigma), purified bovine Smith antigen (GenWay) or boiled filtered purified chicken chromatin from lysed chicken red blood cells (Rockland, Gilbertsville, Pa.) at 10 μg/mL. Spleens are processed using glass homogenization (frosted slides). Dispersed cell contents are washed in sterile HBSS and RBCs lysed using 1×RBC lysis buffer (BioLegend, Cat #420301). Processed splenocytes are added to each well and are not stimulated with lipopolysaccharide (LPS) to avoid skewing of true ex vivo frequencies of antibody-secreting cell types (ASCs). Anti-mouse pan-IgG is used as a positive control for total IgG producing ASCs and is used to normalize results. Frequencies for each antigen are identified in an initial test phase for each model. For chromatin and total IgG only, 30,000 splenocytes are added to each well; for Smith antigen and dsDNA, 500,000 cells are added to each well. Different numbers of splenocytes are added for different antigens due to saturation limits of spot frequencies per well. B-cell Elispots are incubated overnight at 37° C. To develop each assay, secondary antibody is added to each well, incubated, washed and alkaline phosphatase strepavidin (Jackson ImmunoResearch, West Grove, Pa.) is used as the conjugate; substrate used is BCIP-NBT (MabTech, Cincinnati, Ohio). Plates are developed until spots are visible. All Elispot analyses are performed using an Immunospot C.T.L. scanner and Biospot software (Cellular Technology Ltd., Shaker Heights, Ohio). Results are shown as values from which media and cells only wells are subtracted. Some values are negative due to high background.

With `CC(C)C[C@H](NC(=O)[C@H](Cc1ccccc1)NC(=O)c1cnccn1)B(O)O` [bortezomib, reference compound] the “Cytokine IL-12 AUC, percent change vs vehicle” value (NZM mice [1]; G3 0.3 mg/kg ip, 1× wk) was −32%, the “Cytokine IL-13 AUC, percent change vs vehicle” value (NZM mice [1]; G3 0.3 mg/kg ip, 1× wk) was −66% and the “Cytokine IL-17A AUC, percent change vs vehicle” value (NZM mice [1]; G3 0.3 mg/kg ip, 1× wk) was −73%. The “Cytokine IP-10 AUC, percent change vs vehicle” value (NZM mice [1]; G3 0.3 mg/kg ip, 1× wk) was −50%, the “Cytokine MIG AUC, percent change vs vehicle” value (NZM mice [1]; G3 0.3 mg/kg ip, 1× wk) was −67% and the “Cytokine TNFα AUC, percent change vs vehicle” value (NZM mice [1]; G3 0.3 mg/kg ip, 1× wk) was 12%. The “Cytokine IL-12 AUC, percent change vs vehicle” value (NZM mice [1]; G4 0.3 mg/kg ip, 2× wk) was −55%, the “Cytokine IL-13 AUC, percent change vs vehicle” value (NZM mice [1]; G4 0.3 mg/kg ip, 2× wk) was −65% and the “Cytokine IL-17A AUC, percent change vs vehicle” value (NZM mice [1]; G4 0.3 mg/kg ip, 2× wk) was −85%. For the same compound, the “Cytokine IP-10 AUC, percent change vs vehicle” value (NZM mice [1]; G4 0.3 mg/kg ip, 2× wk) was −59%, the “Cytokine MIG AUC, percent change vs vehicle” value (NZM mice [1]; G4 0.3 mg/kg ip, 2× wk) was −72% and the “Cytokine TNFα AUC, percent change vs vehicle” value (NZM mice [1]; G4 0.3 mg/kg ip, 2× wk) was −29%. For the same compound, the “p, serum IL-12p40/p70 concentration vs G9 Vehicle 1× wk ip” value (NZM mice [1]; G5 0.3 mg/kg 1× wk ip) was “NS (NS = not significant (p > 0.05))”, the “p, serum IL-13 concentration vs G9 Vehicle 1× wk ip” value (NZM mice [1]; G5 0.3 mg/kg 1× wk ip) was “NS (NS = not significant (p > 0.05))” and the “p, serum IL-17A concentration vs G9 Vehicle 1× wk ip” value (NZM mice [1]; G5 0.3 mg/kg 1× wk ip) was “NS (NS = not significant (p > 0.05))”. The “p, serum IP-10 concentration vs G9 Vehicle 1× wk ip” value (NZM mice [1]; G5 0.3 mg/kg 1× wk ip) was “p < 0.001”, the “p, serum MIG concentration vs G9 Vehicle 1× wk ip” value (NZM mice [1]; G5 0.3 mg/kg 1× wk ip) was “NS (NS = not significant (p > 0.05))” and the “p, serum TNFα concentration vs G9 Vehicle 1× wk ip” value (NZM mice [1]; G5 0.3 mg/kg 1× wk ip) was “NS (NS = not significant (p > 0.05))”. For the same compound, the “p, serum IL-12p40/p70 concentration vs G9 Vehicle 1× wk ip” value (NZM mice [1]; G6 0.3 mg/kg 2× wk ip) was “p < 0.05”, the “p, serum IL-13 concentration vs G9 Vehicle 1× wk ip” value (NZM mice [1]; G6 0.3 mg/kg 2× wk ip) was “NS (NS = not significant (p > 0.05))” and the “p, serum IL-17A concentration vs G9 Vehicle 1× wk ip” value (NZM mice [1]; G6 0.3 mg/kg 2× wk ip) was “NS (NS = not significant (p > 0.05))”. For the same compound, the “p, serum IP-10 concentration vs G9 Vehicle 1× wk ip” value (NZM mice [1]; G6 0.3 mg/kg 2× wk ip) was “p < 0.001”, the “p, serum MIG concentration vs G9 Vehicle 1× wk ip” value (NZM mice [1]; G6 0.3 mg/kg 2× wk ip) was “NS (NS = not significant (p > 0.05))” and the “p, serum TNFα concentration vs G9 Vehicle 1× wk ip” value (NZM mice [1]; G6 0.3 mg/kg 2× wk ip) was “NS (NS = not significant (p > 0.05))”. The “serum IL-12 decrease vs vehicle, range over the substance's groups” value (NZM mice [1]; once and twice weekly groups) was 32-55%, the “serum CXCL9/MIG as compared to CTX” value (NZM mice [1]; p<0.001 vs CTX, but not to DEX) was “decreased” and the “IL-13 serum levels compared to vehicle” value (NZM mice [1]; treatment groups) was “No significant change”. The “IL-17A serum levels compared to vehicle” value (NZM mice [1]; treatment groups) was “No significant change”, the “Cytokine AUC serum IL-1β, percent change vs vehicle” value (MRL/lpr mice; G4: 0.5 mg/kg iv, 1× wk) was −46% and the “Cytokine AUC serum IL-12, percent change vs vehicle” value (MRL/lpr mice; G4: 0.5 mg/kg iv, 1× wk) was −54%. The “Cytokine AUC serum TNFα, percent change vs vehicle” value (MRL/lpr mice; G4: 0.5 mg/kg iv, 1× wk) was −64%, the “Cytokine AUC serum IL-1β, percent change vs vehicle” value (MRL/lpr mice; G5: 0.3 mg/kg iv, 2× wk) was −51% and the “Cytokine AUC serum IL-12, percent change vs vehicle” value (MRL/lpr mice; G5: 0.3 mg/kg iv, 2× wk) was −54%. For the same compound, the “Cytokine AUC serum TNFα, percent change vs vehicle” value (MRL/lpr mice; G5: 0.3 mg/kg iv, 2× wk) was −71%, the “ASC chromatin EOS, percent change vs vehicle” value (NZM mice [2]; G3 0.3 mg/kg ip, 1× wk) was −46% and the “ASC total IgG EOS, percent change vs vehicle” value (NZM mice [2]; G3 0.3 mg/kg ip, 1× wk) was −1%. The “ASC chromatin EOS, percent change vs vehicle” value (NZM mice [2]; G4 0.3 mg/kg ip, 2× wk) was −74% and the “ASC total IgG EOS, percent change vs vehicle” value (NZM mice [2]; G4 0.3 mg/kg ip, 2× wk) was −31%.
